Assay results reported in publication PMC10353060, “A Chemical Chaperone Restores Connexin 26 Mutant Activity” (ACS Pharmacology & Translational Science, 2023).

Tests used:
connexin 26 (Cx26) = target: T1, connexin 26 (Cx26) (Homo sapiens, UniProt P29033); assay: microscale thermophoresis (MST); assay type: binding; settings: read-out: EC50
T1 construct: gene GJB2; purified recombinant WT connexin channel, His-tag Cy5 labeled

connexin 26 (Cx26) K188N = target: T2, connexin 26 (Cx26) K188N (Homo sapiens, UniProt P29033, K188N); assay: microscale thermophoresis (MST); assay type: binding; settings: read-out: EC50
T2 construct: gene GJB2; purified recombinant connexin channel, His-tag Cy5 labeled

Kd (connexin 26 (Cx26)): 19.3 ± 7.3 µM
Kd (connexin 26 (Cx26) K188N): 4.75 ± 1 µM
Compound: O=C(Nc1ncc([C@H](c2ccccc2Cl)N2CC[C@@H](O)C2)s1)C1(c2ccc3c(c2)OCO3)CC1 [compound 3, 1-(benzo[d][1,3]dioxol-5-yl)-N-(5-((S)-(2-chlorophenyl)((R)-3-hydroxypyrrolidin-1-yl)methyl)thiazol-2-yl) cyclopropanecarboxamide]
